# Assays:
# Assay in all cases: relative viability (nuclei count vs DMSO), 5 days (fraction); higher = more cells survive
# ABC-1 = system: ABC-1
# Method in brief: (§1)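 Relative viability divides the nuclei count in treated wells by that in vehicle wells. Lung cancer cell lines were seeded in 1536-well plates, dosed by pin tool the next day, and fixed and stained after 5 days in one step with final 0.05% Triton X-100, 1% formaldehyde and 1 ug/ml Hoechst. Dosing was a single drug or a fixed anchor-drug dose plus five library-drug doses (not always all listed) in √10 steps, and values are medians of duplicate plates imaged at 4×.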
# NCI-H1792 = system: NCI-H1792
# Method in brief: as §1
# EPLC-272H = system: EPLC-272H
# Method in brief: as §1
# NCI-H460 = system: NCI-H460
# Method in brief: as §1
# NCI-H1651 = system: NCI-H1651
# Method in brief: as §1
# NCI-H2228 = system: NCI-H2228
# Method in brief: as §1
# SK-MES-1 = system: SK-MES-1
# Method in brief: as §1
# NCI-H650 = system: NCI-H650
# Method in brief: as §1
# NCI-H661 = system: NCI-H661
# Method in brief: as §1
# HCC-78 = system: HCC-78
# Method in brief: as §1
# LCLC-97TM1 = system: LCLC-97TM1
# Method in brief: as §1
# LCLC-103H = system: LCLC-103H
# Method in brief: as §1
# NCI-H1734 = system: NCI-H1734
# Method in brief: as §1
# 201T = system: 201T
# Method in brief: as §1
# NCI-H1993 = system: NCI-H1993
# Method in brief: as §1
# SW 1573 = system: SW 1573
# Method in brief: as §1
# LOU-NH91 = system: LOU-NH91
# Method in brief: as §1
# NCI-H1355 = system: NCI-H1355
# Method in brief: as §1
# NCI-H1793 = system: NCI-H1793
# Method in brief: as §1
# RERF-LC-KJ = system: RERF-LC-KJ
# Method in brief: as §1
# NCI-H596 = system: NCI-H596
# Method in brief: as §1
# PC-3 [JPC-3] = system: PC-3 [JPC-3]
# Method in brief: as §1
# NCI-H1915 = system: NCI-H1915
# Method in brief: as §1
compound,measurement,setting,value
C=C1C(=O)O[C@@H](CCCCCCCC)[C@@H]1C(=O)O [C-75] + Cc1nc(Nc2ncc(C(=O)Nc3c(C)cccc3Cl)s2)cc(N2CCN(CCO)CC2)n1 [Dasatinib] (partner 0.075 µM),relative viability,ABC-1; first compound 0.08 µM,0.729
same,relative viability,ABC-1; first compound 0.253 µM,0.613
same,relative viability,ABC-1; first compound 0.8 µM,0.566
same,relative viability,ABC-1; first compound 2.53 µM,0.585
same,relative viability,ABC-1; first compound 8 µM,0.388
same,relative viability,NCI-H1792; first compound 0.08 µM,0.788
same,relative viability,NCI-H1792; first compound 0.253 µM,0.623
same,relative viability,NCI-H1792; first compound 0.8 µM,0.724
same,relative viability,NCI-H1792; first compound 2.53 µM,0.503
same,relative viability,NCI-H1792; first compound 8 µM,0.692
same,relative viability,EPLC-272H; first compound 0.08 µM,0.412
same,relative viability,EPLC-272H; first compound 0.253 µM,0.292
same,relative viability,EPLC-272H; first compound 0.8 µM,0.351
same,relative viability,EPLC-272H; first compound 2.53 µM,0.33
same,relative viability,EPLC-272H; first compound 8 µM,0.381
same,relative viability,NCI-H460; first compound 0.08 µM,0.592
same,relative viability,NCI-H460; first compound 0.253 µM,0.364
same,relative viability,NCI-H460; first compound 0.8 µM,0.415
same,relative viability,NCI-H460; first compound 2.53 µM,0.258
same,relative viability,NCI-H460; first compound 8 µM,0.383
same,relative viability,NCI-H1651; first compound 0.08 µM,0.484
same,relative viability,NCI-H1651; first compound 0.253 µM,0.339
same,relative viability,NCI-H1651; first compound 0.8 µM,0.364
same,relative viability,NCI-H1651; first compound 2.53 µM,0.362
same,relative viability,NCI-H1651; first compound 8 µM,0.413
same,relative viability,NCI-H2228; first compound 0.08 µM,0.613
same,relative viability,NCI-H2228; first compound 0.253 µM,0.627
same,relative viability,NCI-H2228; first compound 0.8 µM,0.524
same,relative viability,NCI-H2228; first compound 2.53 µM,0.394
same,relative viability,NCI-H2228; first compound 8 µM,0.396
same,relative viability,SK-MES-1; first compound 0.08 µM,0.357
same,relative viability,SK-MES-1; first compound 0.253 µM,0.286
same,relative viability,SK-MES-1; first compound 0.8 µM,0.319
same,relative viability,SK-MES-1; first compound 2.53 µM,0.332
same,relative viability,SK-MES-1; first compound 8 µM,0.336
same,relative viability,NCI-H650; first compound 0.08 µM,0.469
same,relative viability,NCI-H650; first compound 0.253 µM,0.328
same,relative viability,NCI-H650; first compound 0.8 µM,0.383
same,relative viability,NCI-H650; first compound 2.53 µM,0.358
same,relative viability,NCI-H650; first compound 8 µM,0.398
same,relative viability,NCI-H661; first compound 0.08 µM,0.839
same,relative viability,NCI-H661; first compound 0.253 µM,0.795
same,relative viability,NCI-H661; first compound 0.8 µM,0.857
same,relative viability,NCI-H661; first compound 2.53 µM,0.856
same,relative viability,NCI-H661; first compound 8 µM,0.746
same,relative viability,HCC-78; first compound 0.08 µM,0.418
same,relative viability,HCC-78; first compound 0.253 µM,0.469
same,relative viability,HCC-78; first compound 0.8 µM,0.341
same,relative viability,HCC-78; first compound 2.53 µM,0.274
same,relative viability,HCC-78; first compound 8 µM,0.347
same,relative viability,LCLC-97TM1; first compound 0.08 µM,0.799
same,relative viability,LCLC-97TM1; first compound 0.253 µM,0.807
same,relative viability,LCLC-97TM1; first compound 0.8 µM,0.883
same,relative viability,LCLC-97TM1; first compound 2.53 µM,0.704
same,relative viability,LCLC-97TM1; first compound 8 µM,0.874
same,relative viability,LCLC-103H; first compound 0.08 µM,0.445
same,relative viability,LCLC-103H; first compound 0.253 µM,0.451
same,relative viability,LCLC-103H; first compound 0.8 µM,0.511
same,relative viability,LCLC-103H; first compound 2.53 µM,0.351
same,relative viability,LCLC-103H; first compound 8 µM,0.524
same,relative viability,NCI-H1734; first compound 0.08 µM,0.525
same,relative viability,NCI-H1734; first compound 0.253 µM,0.415
same,relative viability,NCI-H1734; first compound 0.8 µM,0.465
same,relative viability,NCI-H1734; first compound 2.53 µM,0.351
same,relative viability,NCI-H1734; first compound 8 µM,0.337
same,relative viability,201T; first compound 0.08 µM,0.612
same,relative viability,201T; first compound 0.253 µM,0.707
same,relative viability,201T; first compound 0.8 µM,0.568
same,relative viability,201T; first compound 2.53 µM,0.511
same,relative viability,201T; first compound 8 µM,0.56
same,relative viability,NCI-H1993; first compound 0.08 µM,0.568
same,relative viability,NCI-H1993; first compound 0.253 µM,0.861
same,relative viability,NCI-H1993; first compound 0.8 µM,0.475
same,relative viability,NCI-H1993; first compound 2.53 µM,0.553
same,relative viability,NCI-H1993; first compound 8 µM,0.602
same,relative viability,SW 1573; first compound 0.08 µM,0.632
same,relative viability,SW 1573; first compound 0.253 µM,0.476
same,relative viability,SW 1573; first compound 0.8 µM,0.291
same,relative viability,SW 1573; first compound 2.53 µM,0.46
same,relative viability,SW 1573; first compound 8 µM,0.295
same,relative viability,LOU-NH91; first compound 0.08 µM,0.605
same,relative viability,LOU-NH91; first compound 0.253 µM,0.527
same,relative viability,LOU-NH91; first compound 0.8 µM,0.492
same,relative viability,LOU-NH91; first compound 2.53 µM,0.414
same,relative viability,LOU-NH91; first compound 8 µM,0.544
same,relative viability,NCI-H1355; first compound 0.08 µM,0.71
same,relative viability,NCI-H1355; first compound 0.253 µM,0.613
same,relative viability,NCI-H1355; first compound 0.8 µM,0.702
same,relative viability,NCI-H1355; first compound 2.53 µM,0.649
same,relative viability,NCI-H1355; first compound 8 µM,0.775
same,relative viability,NCI-H1793; first compound 0.08 µM,0.399
same,relative viability,NCI-H1793; first compound 0.253 µM,0.373
same,relative viability,NCI-H1793; first compound 0.8 µM,0.32
same,relative viability,NCI-H1793; first compound 2.53 µM,0.352
same,relative viability,NCI-H1793; first compound 8 µM,0.373
same,relative viability,RERF-LC-KJ; first compound 0.08 µM,0.917
same,relative viability,RERF-LC-KJ; first compound 0.253 µM,0.901
same,relative viability,RERF-LC-KJ; first compound 0.8 µM,0.819
same,relative viability,RERF-LC-KJ; first compound 2.53 µM,0.682
same,relative viability,RERF-LC-KJ; first compound 8 µM,0.798
same,relative viability,NCI-H596; first compound 0.08 µM,0.764
same,relative viability,NCI-H596; first compound 0.253 µM,0.669
same,relative viability,NCI-H596; first compound 0.8 µM,0.6
same,relative viability,NCI-H596; first compound 2.53 µM,0.446
same,relative viability,NCI-H596; first compound 8 µM,0.616
same,relative viability,PC-3 [JPC-3]; first compound 0.08 µM,1.01
same,relative viability,PC-3 [JPC-3]; first compound 0.253 µM,0.994
same,relative viability,PC-3 [JPC-3]; first compound 0.8 µM,1.01
same,relative viability,PC-3 [JPC-3]; first compound 2.53 µM,0.937
same,relative viability,PC-3 [JPC-3]; first compound 8 µM,1
same,relative viability,NCI-H1915; first compound 0.08 µM,0.343
same,relative viability,NCI-H1915; first compound 0.253 µM,0.304
same,relative viability,NCI-H1915; first compound 0.8 µM,0.311
same,relative viability,NCI-H1915; first compound 2.53 µM,0.289
same,relative viability,NCI-H1915; first compound 8 µM,0.383

# — the supplement of paper PMC10307832
